Counter-ions that a name gives are not always drawn.

Consider 24 compounds from patent US10501421B1, “Substituted benzimidazoles as modulators of Ras signaling” (VANDERBILT UNIVERSITY, priority 2017, dated 2019).

For one assay, the target named is T1, Son of Sevenless (SOS) (Homo sapiens, UniProt Q07889).
T1 sequence (Q07889 564-1049 limits assumed): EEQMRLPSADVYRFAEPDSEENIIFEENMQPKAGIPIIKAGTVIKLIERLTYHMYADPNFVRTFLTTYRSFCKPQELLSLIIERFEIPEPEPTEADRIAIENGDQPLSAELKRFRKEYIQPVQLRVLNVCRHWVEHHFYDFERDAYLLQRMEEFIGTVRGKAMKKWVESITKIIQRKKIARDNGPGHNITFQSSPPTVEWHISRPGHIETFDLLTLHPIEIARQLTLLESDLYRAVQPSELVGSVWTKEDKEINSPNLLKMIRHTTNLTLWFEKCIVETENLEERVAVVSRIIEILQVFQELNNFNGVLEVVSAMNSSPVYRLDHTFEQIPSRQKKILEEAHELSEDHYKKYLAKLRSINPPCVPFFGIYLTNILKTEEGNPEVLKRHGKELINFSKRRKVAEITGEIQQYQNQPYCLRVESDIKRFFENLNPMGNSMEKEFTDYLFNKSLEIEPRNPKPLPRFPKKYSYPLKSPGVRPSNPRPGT
Kind of assay: Binding to SOS, fluorescence polarization anisotropy (FPA) probe displacement. To be noted: displacement of FITC-conjugated probe (Example 285), affinity calculated from IC50. The procedure: Compounds of the present invention were tested for their ability to bind to the Ras guanine exchange factor (GEF) Son of Sevenless (SOS). Binding to SOS was measured using a Fluorescence polarization anisotropy (FPA) assay that assesses the ability of a test compound to displace a fluorescent FITC-conjugated compound (Example 285). Briefly, the labeled probe compound is incubated with SOS in buffer. Changes in anisotropy indicative of displacement of the labeled probe for a test compound are assessed over a dose range of test compound. Data was analyzed by plotting fluorescence anisotropy values as a function of compound concentration. IC50 values were determined using a four-parameter dose-response (variable slope) and binding affinities were calculated from this IC50 value. This assay is performed in a method analogous to the assay disclosed in: Burns, M. C.; Sun, Q.; Daniels, R. N.; Camper, D. V.; Kennedy, J. P.; Phan, J.; Olejniczak, E. O.; Lee, T.; Waterson, A. G.; Rossanese, O. W.; Fesik, S. W. “Approach for targeting Ras with small molecules that activate SOS-mediated nucleotide exchange” Proc. Natl. Acad. Sci. 2014; 11(9): 3401-3406. PMCID: PMC3948241.

Assay [1] deals with Ras GEF SOS (Son of Sevenless) (Homo sapiens, UniProt Q07889). Kind of assay: SOS-mediated nucleotide exchange on Ras (BODIPY-GDP fluorescence). Format: biochemical. To be noted: SOS-mediated exchange of BODIPY-GDP for GTP on Ras. Summed up:
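Ras loaded with BODIPY-GDP was mixed in buffer with test compound, then GTP and SOS. Fluorescence change from labeled GDP/GTP exchange was followed over time, and rates came from single-exponential fits. EC50 came from a four-parameter fit of mean rate against compound concentration.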

Sequence of Ras GEF SOS (Son of Sevenless) (P01112 1-166 partner limits assumed, one chain of several): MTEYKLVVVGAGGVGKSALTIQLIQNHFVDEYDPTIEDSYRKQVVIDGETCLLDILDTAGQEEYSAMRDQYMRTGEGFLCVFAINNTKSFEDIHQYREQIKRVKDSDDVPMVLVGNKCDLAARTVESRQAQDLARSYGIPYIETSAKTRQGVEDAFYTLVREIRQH

In the case of `Cc1cc(Cn2c(N3CCNCC3)nc3c(OC4CCN(C)CC4)cccc32)ccc1F` [Example 205, 1-(4-fluoro-3-methylbenzyl)-4-((1-methylpiperidin-4-yl)oxy)-2-(piperazin-1-yl)-1H-benzo[d]imidazole], at Son of Sevenless (SOS), the Ki (commonly the equilibrium dissociation constant of an inhibitor or competing ligand from its target) is 1000 to 5000 nM. Besides, the EC50 (in general, the concentration that produces a half-maximal response) in assay [1] is less than 1000 nM.
In the case of `Cc1cc2nc(NCCN)n(Cc3ccc(F)c(Cl)c3)c2cc1Br` [Example 64, N^1-(6-bromo-1-(3-chloro-4-fluorobenzyl)-5-methyl-1H-benzo[d]imidazol-2-yl)ethane-1,2-diamine trifluoroacetate], at Son of Sevenless (SOS), the Ki was 500 to 1000 nM. Further, in assay [1], the EC50 is 1000 to 5000 nM.
For `Cc1ccccc1-c1c(C)c(C)cc2c1nc(NCCN)n2Cc1cccc(C#N)c1` [Example 116, 3-((2-((2-aminoethyl)amino)-5,6-dimethyl-4-(o-tolyl)-1H-benzo[d]imidazol-1-yl)methyl)benzonitrile trifluoroacetate] the same measures were 1000 to 5000 nM and 1000 to 5000 nM.
Taken in the same sequence, the figures for `Cc1cc(Br)c2nc(NCCN)n(Cc3cc(C)c(F)c(C)c3)c2c1` [Example 313, N^1-(4-bromo-1-(4-fluoro-3,5-dimethylbenzyl)-6-methyl-1H-benzo[d]imidazol-2-yl)ethane-1,2-diamine] were 1000 to 5000 nM and 1000 to 5000 nM.
For `Cc1cc2nc(NCCN)n(Cc3ccc(Cl)cc3)c2cc1C` [Example 20, N^1-(1-(4-chlorobenzyl)-5,6-dimethyl-1H-benzo[d]imidazol-2-yl)ethane-1,2-diamine trifluoroacetate], the Ki at Son of Sevenless (SOS) was more than 5000 nM. In assay [1], this compound returned an EC50 of 5000 to 30000 nM.
Taken in the same sequence, the figures for `Cc1cc(Cn2c(N3CCNCC3)nc3c(-c4ccnn4-c4ccc(C(C)(C)C)cc4)cc(Cl)cc32)cc(C)c1F` [Example 178, 4-(1-(4-(tert-butyl)phenyl)-1H-pyrazol-5-yl)-6-chloro-1-(4-fluoro-3,5-dimethylbenzyl)-2-(piperazin-1-yl)-1H-benzo[d]imidazole trifluoroacetate] were more than 5000 nM and 5000 to 30000 nM.
For the compound `Cc1cc2c(nc(N3CCNCC3)n2Cc2ccc(F)c(C)c2)c(CN2CCCCC2)n1` [Example 235, 1-(4-fluoro-3-methylbenzyl)-6-methyl-2-(piperazin-1-yl)-4-(piperidin-1-ylmethyl)-1H-imidazo[4,5-c]pyridine], the Ki at Son of Sevenless (SOS) was more than 5000 nM. Moreover, the EC50 in assay [1] was 30000 to 100000 nM.
On to `CN(C)CCn1nccc1-c1cc(Cl)cc2c1nc(N1CCNCC1)n2Cc1ccc(F)c(Cl)c1` [Example 175, 2-(5-(6-chloro-1-(3-chloro-4-fluorobenzyl)-2-(piperazin-1-yl)-1H-benzo[d]imidazol-4-yl)-1H-pyrazol-1-yl)-N,N-dimethylethan-1-amine trifluoroacetate], for which, at Son of Sevenless (SOS), the Ki was 500 to 1000 nM. For the same compound, the EC50 in assay [1] is less than 1000 nM.
Consider `Cc1cc(N2CCN(C)CC2)c2nc(N3CCNCC3)n(Cc3cc(C)c(F)c(C)c3)c2c1` [Example 322, 1-(4-fluoro-3,5-dimethylbenzyl)-6-methyl-4-(4-methylpiperazin-1-yl)-2-(piperazin-1-yl)-1H-benzo[d]imidazole], for which the Ki on Son of Sevenless (SOS) was less than 500 nM. For the same compound, in assay [1], the EC50 was less than 1000 nM.
Taken in the same sequence, the figures for `Cc1cc(CO)c2nc(N3CCNCC3)n(Cc3cc(C)c(F)c(C)c3)c2c1` [Example 280, [1-[(4-fluoro-3,5-dimethylphenyl)methyl]-6-methyl-2-piperazin-1-ylbenzimidazol-4-yl]methanol] were 1000 to 5000 nM and less than 1000 nM.
For `Cc1cc(Cn2c(NCCN)nc3c(-c4ccccc4Cl)cc(Cl)cc32)cc(C)c1F` [Example 306, N^1-(6-chloro-4-(2-chlorophenyl)-1-(4-fluoro-3,5-dimethylbenzyl)-1H-benzo[d]imidazol-2-yl)ethane-1,2-diamine] the same measures were less than 500 nM and 1000 to 5000 nM.
On to `Cc1cc(-c2ccccc2C)c2ncn(Cc3ccc(F)c(Cl)c3)c2c1` [Example 143, 1-(3-chloro-4-fluorobenzyl)-6-methyl-4-(o-tolyl)-1H-benzo[d]imidazole], for which, at Son of Sevenless (SOS), the Ki was more than 5000 nM. Moreover, the EC50 in assay [1] was in the range of 5000 to 30000 nM.
Regarding `Cc1cc(-c2c(C)nn(C)c2C)c2nc(N3CCNCC3)n(Cc3ccc(F)c(Cl)c3)c2c1` [Example 121, 1-(3-chloro-4-fluorobenzyl)-6-methyl-2-(piperazin-1-yl)-4-(1,3,5-trimethyl-1H-pyrazol-4-yl)-1H-benzo[d]imidazole trifluoroacetate], the Ki on Son of Sevenless (SOS) is less than 500 nM. The compound also returned an EC50 in assay [1] of less than 1000 nM.
Taken in the same sequence, the figures for `Cc1cc2c(nc(N3CCNCC3)n2Cc2ccc(F)c(Cl)c2)c(-c2cccnc2)c1C` [Example 265, 1-[(3-chloro-4-fluorophenyl)methyl]-5,6-dimethyl-2-piperazin-1-yl-4-pyridin-3-ylbenzimidazole] were 1000 to 5000 nM and 1000 to 5000 nM.
Taken in the same sequence, the figures for `Clc1ccc(Cn2c(N3CCNCC3)nc3ncccc32)cc1` [Example 251, 1-(4-chlorobenzyl)-2-(piperazin-1-yl)-1H-imidazo[4,5-b]pyridine] were more than 5000 nM and 30000 to 100000 nM.
For `Fc1ccc(Cn2c(N3CCNCC3)nc3ccc(Br)cc32)cc1Cl` [Example 63, 6-bromo-1-(3-chloro-4-fluorobenzyl)-2-(piperazin-1-yl)-1H-benzo[d]imidazole trifluoroacetate] the same measures were 500 to 1000 nM and less than 1000 nM.
For the compound `NCCc1cccc2c1nc(N1CCNCC1)n2Cc1ccc(F)c(Cl)c1` [Example 98, 2-(1-(3-chloro-4-fluorobenzyl)-2-(piperazin-1-yl)-1H-benzo[d]imidazol-4-yl)ethan-1-amine trifluoroacetate], at Son of Sevenless (SOS), the Ki was more than 5000 nM. This compound came in with an EC50 in assay [1] of 1000 to 5000 nM.
Taken in the same sequence, the figures for `Cc1cc(Cn2c(N3CCNCC3)nc3c(-c4c(C)cccc4C#Cc4ccccc4Cl)cc(Cl)cc32)cc(C)c1F` [Example 184, 6-chloro-4-(2-((2-chlorophenyl)ethynyl)-6-methylphenyl)-1-(4-fluoro-3,5-dimethylbenzyl)-2-(piperazin-1-yl)-1H-benzo[d]imidazole trifluoroacetate] were 500 to 1000 nM and 1000 to 5000 nM.
Regarding `Cc1ccc2nc(N3CCNCC3)n(Cc3ccc(F)c(Cl)c3)c2c1` [Example 61, 1-(3-chloro-4-fluorobenzyl)-6-methyl-2-(piperazin-1-yl)-1H-benzo[d]imidazole trifluoroacetate], the Ki on Son of Sevenless (SOS) was 1000 to 5000 nM. The EC50 in assay [1] was in the range of 1000 to 5000 nM.
As for `Cc1cc2c(nc(N3CCNCC3)n2Cc2cc(C)c(F)c(C)c2)c(CCN)c1C` [Example 102, 2-(1-(4-fluoro-3,5-dimethylbenzyl)-5,6-dimethyl-2-(piperazin-1-yl)-1H-benzo[d]imidazol-4-yl)ethan-1-amine trifluoroacetate], on Son of Sevenless (SOS), the Ki was more than 5000 nM. Moreover, the 50% effective concentration (EC50) in assay [1] was 1000 to 5000 nM.
Taken in the same sequence, the figures for `Cc1cc(OCCN2CCN(C)CC2)c2nc(NCCN)n(Cc3cc(C)c(F)c(C)c3)c2c1` [Example 331, N^1-(1-(4-fluoro-3,5-dimethylbenzyl)-6-methyl-4-(2-(4-methylpiperazin-1-yl)ethoxy)-1H-benzo[d]imidazol-2-yl)ethane-1,2-diamine] were 500 to 1000 nM and less than 1000 nM.
For `Cc1cnc2nc(NC3CCNC3)n(Cc3ccc(F)c(Cl)c3)c2c1` (stereo not drawn) [Example 247, 1-(3-chloro-4-fluorobenzyl)-6-methyl-N-(pyrrolidin-3-yl)-1H-imidazo[4,5-b]pyridin-2-amine] the same measures were 1000 to 5000 nM and 1000 to 5000 nM.
Regarding `NC(CO)c1cc(Cl)cc2c1nc(N1CCNCC1)n2Cc1ccc(F)c(Cl)c1` (stereo not drawn) [Example 283, 2-amino-2-[6-chloro-1-[(3-chloro-4-fluorophenyl)methyl]-2-piperazin-1-ylbenzimidazol-4-yl]ethanol], the Ki at Son of Sevenless (SOS) is more than 5000 nM. The compound further showed an EC50 in assay [1] of 5000 to 30000 nM.
For the compound `N[C@H](c1cc(Cl)cc2c1nc(N1CCNCC1)n2Cc1ccc(F)c(Cl)c1)C1CC1` [Example 167, (S)-(6-chloro-1-(3-chloro-4-fluorobenzyl)-2-(piperazin-1-yl)-1H-benzo[d]imidazol-4-yl)(cyclopropyl)methanamine trifluoroacetate], on Son of Sevenless (SOS), the Ki is 500 to 1000 nM. In assay [1], this compound displayed an EC50 of less than 1000 nM.
